The text below walks through data of patent publication US20110039905A1, “BENZIMIDAZOLE DERIVATIVES AS CALCIUM CHANNEL BLOCKERS” (priority 2008, published 2011).

In one experiment the target is T1, human Cav1.2 channel (Homo sapiens, UniProt Q13936).
T1 construct: expressed in transfected cells; host or cells: HEK293
The experiment in a line: In vitro assay L channel (FLIPR, KCl-induced calcium fluorescence). Format: cell-based. The note with it: HEK293 cells expressing human Cav1.2 with β-2a and α2δ-1; 20 mM KCl depolarization; range stated for the group; read-out: IC50 (L channel antagonistic activity). On the procedure:
The L channel antagonistic activity (IC50 values) of the compounds of formula (I) is determined in accordance with the following experimental method.
Human embryonic kidney (HEK293) cells expressing the human Cav1.2 channel in addition to the auxiliary subunits β-2a and α2δ-1, are grown in culture medium (DMEM containing 10% heat-inactivated fetal calf serum (FCS), 100 U/ml penicillin, 100 μg/ml streptomycin, 100 μg/ml G418, 40 μg/ml zeocin and 100 μg/ml hygromycin). The cells are seeded at 20,000 cells/well into 384-well black clear bottom sterile plates (poly-L-lysine-coated, Becton Dickinson). The seeded plates are incubated overnight at 37° C. in 5% CO2. The KCl solution is prepared as 80 mM stock solution in assay buffer (HBSS containing 0.1% BSA, 20 mM HEPES, 0.375 g/l NaHCO3, adjusted to pH 7.4 with NaOH) for use in the assay at a final concentration of 20 mM. Antagonists are prepared as 10 mM stock solutions in DMSO, then diluted in 384w plates first in DMSO, then in assay buffer to obtain 3× stocks. On the day of the assay, 25 μl of staining buffer (HBSS containing 20 mM HEPES, 0.375 g/l NaHCO3, and 30 μM of the fluorescent calcium indicator fluo-4 AM (1 mM stock solution in DMSO, containing 10% pluronic) is added to each well of the seeded plate. The 384-well cell-plates are incubated for 60 min at 37° C. in 5% CO2 followed by washing with […] using assay buffer leaving […] of this buffer for equilibration at room temperature (30-60 min). Within the Fluorescent Imaging Plate Reader (FLIPR, Molecular Devices), antagonists are added to the plate in a volume of 25 μl/well, incubated for 3 min and finally 25 μl/well of KCl solution is added for cellular depolarization. Fluorescence is measured for each well at 2 second intervals for 8 minutes, and the area under the curve of each fluorescence peak is compared to the area of the fluorescence peak induced by 20 mM KCl with vehicle in place of antagonist. […]

A further experiment has as its system isolated mouse hearts. Description: Effect on isolated hearts according to the Langendorff method. The note with it: read-out: EC50 (Langendorff experiment). On the procedure: The compounds were tested for their potential to reduce blood pressure and their effect on the contractility of the heart muscle. EC50 values on isolated mouse hearts were determined according to Literature (Doring H J., The isolated perfused heart according to Langendorff technique—function—application, Physiol. Bohemoslov. 1990, 39(6), 481-504; Kligfield P, Horner H, Brachfeld N., A model of graded ischemia in the isolated perfused rat heart, J. Appl. Physiol. 1976 June, 40(6), 1004-8).

The test system of experiment [1] is human Cav3.1 Cav3.2 or Cav3.3 channel. Description: In vitro assay T channel (FLIPR, Ca2+-induced calcium fluorescence). Format: cell-based. The note with it: HEK293 cells expressing human Cav3.1, Cav3.2 or Cav3.3; 10 mM Ca2+; subtype not specified in Table 1; read-out: IC50 (T channel antagonistic activity). On the procedure: The T channel antagonistic activity (IC50 values) of the compounds of formula (I) is determined in accordance with the following experimental method and data are shown in Table 1.
Human embryonic kidney (HEK293) cells expressing the human Cav3.1 Cav3.2 or Cav3.3 channel, respectively, are grown in culture medium (DMEM containing 10% heat-inactivated fetal calf serum (FCS), 100 U/ml penicillin, 100 μg/ml streptomycin and 1 mg/ml G418). The cells are seeded at 20,000 cells/well into 384-well black clear bottom sterile plates (poly-L-lysine-coated, Becton Dickinson). The seeded plates are incubated overnight at 37° C. in 5% CO2. […] On the day of the assay, 25 μl of staining buffer (HBSS containing 20 mM HEPES, 0.375 g/l NaHCO3 and 30 μM of the fluorescent calcium indicator fluo-4 AM (1 mM stock solution in DMSO, containing 10% pluronic) is added to each well of the seeded plate. The 384-well cell-plates are incubated for 60 min at 37° C. in 5% CO2 followed by washing with […] using HBSS containing 0.1% BSA, 20 mM HEPES, 0.375 g/l NaHCO3, leaving […] of this buffer for equilibration at room temperature (30-60 min). Within the Fluorescent Imaging Plate Reader (FLIPR, Molecular Devices), antagonists are added to the plate in a volume of […], incubated for 3 min, and finally […] of Ca^2+solution is added. […]

T1 sequence (Q13936 whole entry): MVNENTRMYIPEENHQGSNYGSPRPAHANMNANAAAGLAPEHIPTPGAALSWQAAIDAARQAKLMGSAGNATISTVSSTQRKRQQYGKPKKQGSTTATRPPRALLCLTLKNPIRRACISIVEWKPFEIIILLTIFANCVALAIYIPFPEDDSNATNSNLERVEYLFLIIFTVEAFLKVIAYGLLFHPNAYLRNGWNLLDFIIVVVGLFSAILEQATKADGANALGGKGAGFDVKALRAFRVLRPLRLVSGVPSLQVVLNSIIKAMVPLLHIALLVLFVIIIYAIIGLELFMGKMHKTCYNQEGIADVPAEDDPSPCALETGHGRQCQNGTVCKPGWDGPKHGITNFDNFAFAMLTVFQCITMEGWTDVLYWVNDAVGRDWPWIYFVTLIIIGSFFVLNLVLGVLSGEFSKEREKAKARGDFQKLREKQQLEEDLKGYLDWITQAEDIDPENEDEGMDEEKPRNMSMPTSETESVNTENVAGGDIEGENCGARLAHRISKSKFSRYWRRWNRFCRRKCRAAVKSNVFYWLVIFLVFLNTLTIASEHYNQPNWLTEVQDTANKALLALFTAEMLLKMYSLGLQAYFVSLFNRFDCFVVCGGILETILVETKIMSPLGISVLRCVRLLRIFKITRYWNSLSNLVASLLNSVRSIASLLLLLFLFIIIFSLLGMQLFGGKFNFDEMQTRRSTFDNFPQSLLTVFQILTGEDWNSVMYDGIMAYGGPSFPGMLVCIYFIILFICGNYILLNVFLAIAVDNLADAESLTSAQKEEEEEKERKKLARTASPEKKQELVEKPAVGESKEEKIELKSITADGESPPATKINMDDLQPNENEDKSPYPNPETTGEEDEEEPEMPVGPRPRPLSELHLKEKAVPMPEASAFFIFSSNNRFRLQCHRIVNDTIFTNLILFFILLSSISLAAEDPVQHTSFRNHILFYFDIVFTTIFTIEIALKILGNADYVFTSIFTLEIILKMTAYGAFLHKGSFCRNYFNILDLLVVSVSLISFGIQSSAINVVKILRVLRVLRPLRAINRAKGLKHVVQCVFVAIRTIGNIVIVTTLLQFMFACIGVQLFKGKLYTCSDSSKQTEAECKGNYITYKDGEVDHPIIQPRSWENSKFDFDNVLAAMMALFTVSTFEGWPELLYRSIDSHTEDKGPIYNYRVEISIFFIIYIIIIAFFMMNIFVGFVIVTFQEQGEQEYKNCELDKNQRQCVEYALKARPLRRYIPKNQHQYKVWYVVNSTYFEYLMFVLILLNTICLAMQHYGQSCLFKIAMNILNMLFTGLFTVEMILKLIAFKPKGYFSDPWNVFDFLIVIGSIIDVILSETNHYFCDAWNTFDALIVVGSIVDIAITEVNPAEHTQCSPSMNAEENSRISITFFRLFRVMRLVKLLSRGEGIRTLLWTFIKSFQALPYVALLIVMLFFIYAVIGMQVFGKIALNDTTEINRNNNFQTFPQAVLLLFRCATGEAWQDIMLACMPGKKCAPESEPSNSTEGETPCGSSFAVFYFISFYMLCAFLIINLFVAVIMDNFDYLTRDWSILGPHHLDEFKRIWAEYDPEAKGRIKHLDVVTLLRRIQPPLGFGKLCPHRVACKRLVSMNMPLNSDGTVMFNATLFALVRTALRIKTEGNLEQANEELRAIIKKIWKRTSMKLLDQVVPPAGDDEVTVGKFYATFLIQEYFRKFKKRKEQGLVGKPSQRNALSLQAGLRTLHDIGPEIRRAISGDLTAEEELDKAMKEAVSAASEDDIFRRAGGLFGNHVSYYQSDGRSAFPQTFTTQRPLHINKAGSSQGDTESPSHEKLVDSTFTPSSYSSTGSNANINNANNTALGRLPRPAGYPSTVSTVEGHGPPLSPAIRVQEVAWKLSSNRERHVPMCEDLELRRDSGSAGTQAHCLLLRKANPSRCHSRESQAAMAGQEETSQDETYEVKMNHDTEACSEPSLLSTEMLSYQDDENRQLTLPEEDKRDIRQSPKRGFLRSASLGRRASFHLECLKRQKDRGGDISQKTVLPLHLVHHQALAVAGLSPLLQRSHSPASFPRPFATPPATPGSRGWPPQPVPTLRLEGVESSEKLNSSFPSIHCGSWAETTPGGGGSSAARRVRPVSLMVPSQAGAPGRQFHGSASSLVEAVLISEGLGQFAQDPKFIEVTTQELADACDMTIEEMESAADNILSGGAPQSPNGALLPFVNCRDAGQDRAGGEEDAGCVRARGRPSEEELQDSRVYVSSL

Broadly, the IC50 is the concentration needed to halve the response being measured. What is called EC50 is the concentration needed to bring the measured effect to its halfway point. As for `COc1ccc(OC)c2[nH]c(CCCN(C)CC[C@]3(OC(=O)C(C)C)C[C@H]4CC[C@@H]3C=C4c3ccccc3)nc12` (racemic) [Example 1A, rac-Isobutyric acid (1R*,2R*,4R*)-2-(2-{[3-(4,7-dimethoxy-1H-benzoimidazol-2-yl)-propyl]-methyl-amino}-ethyl)-5-phenyl-bicyclo[2.2.2]oct-5-en-2-yl ester], the concentration for half-maximal inhibition (IC50) at human Cav1.2 channel lay in the range of 156 to 439 nM. In the experiment on isolated mouse hearts, the EC50 was determined as 5 nM.
For the compound `COc1ccc(OC)c2[nH]c(CCCN(C)CC[C@]3(OC(=O)C(C)C)C[C@H]4CCC[C@@H]3C=C4c3ccccc3)nc12` (racemic) [Example 4A, rac-Isobutyric acid (1R*,5R*,6R*)-6-(2-{[3-(4,7-dimethoxy-1H-benzoimidazol-2-yl)-propyl]-methyl-amino}-ethyl)-8-phenyl-bicyclo[3.2.2]non-8-en-6-yl ester], the 50% inhibitory concentration (IC50) at human Cav1.2 channel was in the range of 156 to 439 nM.
`COc1ccc(OC)c2[nH]c(CCCN(C)CCC3(OC(=O)C(C)C)CC4CCC3C=C4c3ccccc3)nc12` (single isomer, unassigned) [Example 2A, Isobutyric acid (1R,2R,4R)-2-(2-{[3-(4,7-dimethoxy-1H-benzoimidazol-2-yl)-propyl]-methyl-amino}-ethyl)-5-phenyl-bicyclo[2.2.2]oct-5-en-2-yl ester or isobutyric acid (1S,2S,4S)-2-(2-{[3-(4,7-dimethoxy-1H-benzoimidazol-2-yl)-propyl]-methyl-amino}-ethyl)-5-phenyl-bicyclo[2.2.2]oct-5-en-2-yl ester]: the 50% inhibitory concentration (IC50) on human Cav1.2 channel was 156 to 439 nM; in experiment [1] it was 778 nM.
For `COc1ccc(OC)c2[nH]c(CCCN(C)CCC3(OC(=O)C(C)C)CC4CCC3C=C4c3ccccc3)nc12` (single isomer, unassigned) [Example 3A, Isobutyric acid (1R,2R,4R)-2-(2-{[3-(4,7-dimethoxy-1H-benzoimidazol-2-yl)-propyl]-methyl-amino}-ethyl)-5-phenyl-bicyclo[2.2.2]oct-5-en-2-yl ester or isobutyric acid (1S,2S,4S)-2-(2-{[3-(4,7-dimethoxy-1H-benzoimidazol-2-yl)-propyl]-methyl-amino}-ethyl)-5-phenyl-bicyclo[2.2.2]oct-5-en-2-yl ester], in experiment [1], the IC50 came to 793 nM.
